Measurements taken from patent publication US20130108645A1, “METHODS FOR ENHANCING AXONAL REGENERATION” (THE JOHNS HOPKINS UNIVERSITY, priority 2010, published 2013).

Experiments:
WT DRG explants = assay: Axonal outgrowth of dorsal root ganglia (DRG) explants; settings: 50 nM, 4 days post culture
Procedure: Postnatal (P4-5) primary mouse DRG from WT littermate and BACE1 KO pups were established. Axonal outgrowth at 2 and 4 days post culture were measured.
Postnatal day 4-5 dorsal root ganglia (DRG) were dissected out of WT and BACE1 KO mice, and were maintained in neurobasal medium containing 2% B27 supplement and 50 ng/ml NGF (all reagents from Invitrogen, Carlsbad, Calif.). In some of the WT DRG explants, 50 nM-1 μM BACE1 inhibitor IV was added daily to the media. At least 8 explants were used for each condition. Axonal outgrowth of the DRG was monitored daily under phase-contrast microscopy, and images were acquired with Openlab software at 2 and 4 days post culture. The axon lengths were measured from the borders of the explants borders to the tips of axons using ImageJ (http://rsb.info.nih.gov/ij/).

WT mice = assay: Sciatic nerve crush in WT mice with systemic BACE1 inhibitor infusion via Alzet pumps; type: in vivo, mouse
Excerpt: The inhibitors were systemically administered via subcutaneous catheters from Alzet pumps implanted in the interscapular space for 7 or 15 days.
Mice were deeply anesthetized with isoflurane and left sciatic nerves in the mid thigh or at the sciatic notch level were exposed and crushed by pulling tight a loop of 8-0 nylon black sutures for 30-40 seconds. The crush sites were marked with a 10-0 nylon black suture going through the epineurium only. For sciatic nerve transection, a small ˜2 mm piece of nerve was dissected out and the two nerve stumps were turned away from each other to prevent axonal regeneration to distal stumps. The distal stumps and contralateral nerves were collected 1-15 days post-transection.
Alzet pumps were filled, primed, and implanted as previously described in Farah, J. Neurosci. […] Neurol. […] The latter compound was synthesized by the NeuroTranslational team at the Brain Science Institute at Johns Hopkins University. Both inhibitors were dissolved in DMSO. According to the manufacturer's data, the pump continuously supplied 1-30 μg/hour of inhibitor for 7 days. To minimize the delay between implantation and the onset of release, the filled pumps were incubated in 1×PBS at 37° C. for 4 hours immediately before implantation. The mice were anesthetized by inhalation of isoflurane, and an incision, about 1.5 cm long, was made in the skin on top of the interscapular space. A filled Alzet pump was implanted subcutaneously into each mouse and incisions were closed with 9 mm stainless steel wound clips.
For fluorescent microscopy and immunostaining, mice were deeply anesthetized with 10% chloral hydrate and killed by transcardial perfusion with 1×PBS followed by 2% paraformaldehyde in […] phosphate buffer, pH 7.4, for 10-15 minutes. Tissues were then postfixed in the same fixative for 4-16 hr at 4° C. Sciatic nerves and gastrocnemius muscles were cryoprotected in 30% sucrose in 1×PBS overnight and quickly frozen in cold 2-methylbutane. Tissues were frozen sectioned on a cryostat at thickness of 10 or 20 μm for sciatic nerves and 50 μm for gastrocnemius muscles. In addition, the hind feet were decalcified, cryoprotected in 30% sucrose in 1×PBS, and sectioned at 50 μm thickness. Sciatic nerves were sectioned longitudinally using a Leica cryostat (model CM3050S, Leica Microsystems, Buffalo Grove, Ill.). Gastrocnemius muscles and foot were cross-sectioned by a freezing sliding microtome (Microm HM 450, Thermo Scientific, Waltham, Mass.).
To visualize YFP-positive degenerating and regenerating axons, animals were perfused as described above and sciatic nerves were collected. Whole-mounted sciatic nerves were imaged under a confocal microscope and Z-stack images were collected through the depth of the nerves.
For ultrastructural analyses, nerves were postfixed in OsO4 and embedded in Epon. Cross sections, at 1 μm thickness, were stained for toluidine blue and examined under light microscopy with 100× oil-immersion objective. 70 nm thin sections were obtained and stained for citrate/uranyl acetate. Electron micrographs were acquired using a Hitachi 7600 or Zeiss Libra transmission electron microscope.

[1] = Paclitaxel administration, body weight; type: in vivo, mouse; settings: 30 mg/kg intravenously via tail vein, 3 times a week for 2 weeks; WT and BACE1 KO mice
Procedure: Paclitaxel (LC laboratories) was dissolved in 100% ethonal. Equal volumes of paclitaxel solution and cremophor (Sigma-Aldrich, St. Louis, Mo.) were vigorously vortexed for 10 minutes. Ice cold saline (80% of the final volume) was added to freshly made paclitaxel/cremophor solution immediately before injection. 30 mg/kg body weight of paclitaxel in this solution was injected intravenously via tail vein at 3 times a week for 2 weeks.

For `C[C@@H](NC(=O)c1cc(C(=O)N[C@@H](Cc2ccccc2)[C@H](O)CNC2CC2)cc(N(C)S(C)(=O)=O)c1)c1ccccc1` [BACE1 inhibitor IV], the “increase of axonal outgrowth of WT DRG explants” value (WT DRG explants) was 98.0%, the “YFP-positive axonal debris in whole-mounted YFP-WT nerve” value (WT mice; mouse, in vivo) was “more fragmented” and the “post-phagocytic macrophages in electron micrograph of WT nerve” value (WT mice; mouse, in vivo) was “More post-phagocytic macrophages”. For the same compound, the “regenerated YFP-positive axons in whole-mounted YFP-WT nerve” value (WT mice; mouse, in vivo) was “numerous regenerated YFP-positive axons” and the “regenerated axons in electron micrograph of WT nerve” value (WT mice; mouse, in vivo) was “more regenerated axons”.

With `CC(=O)O[C@H]1C(=O)[C@@]2(C)[C@H]([C@H](OC(=O)c3ccccc3)[C@]3(O)C[C@H](OC(=O)[C@H](O)[C@@H](NC(=O)c4ccccc4)c4ccccc4)C(C)=C1C3(C)C)[C@]1(OC(C)=O)CO[C@@H]1C[C@@H]2O` [Paclitaxel, paclitaxel] the weight loss [1] was “no significant weight loss”.

With `COc1ccc([C@]2(c3ccc(F)c(-c4cccnc4F)c3)N=C(N)N(C)C2=O)cc1C` [WAY 258131] the “β tubulin III staining of intra-plantar nerves of WT foot” value (WT mice; 2 weeks after sciatic nerve crush and treatment) was “β tubulin III positive fibers are regenerated axons”.
